Measurements as given in patent publication US10662214B2, “Compound of 4′-thionucleoside, as well as preparation method therefor, pharmaceutical composition thereof and application thereof” (Sichuan Kelun-Biotech Biopharmaceutical Co., Ltd., priority 2015, dated 2020).

Key:
[1] = tested on: human pancreatic cancer cell BxPC-3; experiment: Subcutaneous xenograft of human pancreatic cancer cell BxPC-3 in a nude mouse (Experimental example 4); format: in vivo
Method: According to methods similar to those in sections 1 to 3 in Experimental example 2, pancreatic cancer cell BxPC-3 was cultured as a monolayer in vitro, and inoculated; the animals were randomized into groups; and samples were prepared.
Mice bearing a tumor having a volume of 80-250 mm^3 were selected, and randomized into 6 groups (8 mice per group). The dosing volume was 10 mL/kg.
(§1) For statistical calculations of the test indexes, please refer to Experimental example 2.
The test results obtained by administrating (intravenous administration (i.v.) or oral administration (p.o.)) once a week for 3 weeks are shown in table 7-2.

[2] = tested on: human pancreatic cancer cell BxPC-3; experiment: Subcutaneous xenograft of human pancreatic cancer cell BxPC-3 in a nude mouse (Experimental example 3); format: in vivo; details: once every 3 days, 4 times
Method: According to methods similar to those in sections 1 to 2 in Experimental example 2, pancreatic cancer cell BxPC-3 was cultured as a monolayer in vitro, and inoculated, and the animals were randomized into groups.
An appropriate amount of the test compound was weighted out, and added in DMSO. The 10% solution of SE-β-CD was then added according to the desired concentration, and the final concentration of DMSO was adjusted to 2.5%. A gemcitabine injection (a positive control) was diluted to the desired concentration with physiological saline. A 10% solution of SE-β-CD containing 2.5% DMSO was prepared as a vehicle control.
Mice bearing a tumor having a volume of 100-200 mm^3 were selected, and randomized into 14 groups (7 mice per group). The dosing volume was 20 mL/kg, and the administration (intravenous administration (i.v.)) was performed once every 3 days, for 4 times in total.
as §1

[3] = tested on: human pancreatic cancer cell PANC-1; experiment: Subcutaneous xenograft of human pancreatic cancer cell PANC-1 in a nude mouse (Experimental example 6); format: in vivo; details: 0.06 mmol/kg i.v., once every 3 days, 6 times
Method: This test was performed according to experimental example 5.
Mice bearing a tumor having a volume of 100-200 mm^3 were selected, and randomized into 4 groups (6 mice per group).

[4] = tested on: colorectal cancer cell HCT-116; experiment: Subcutaneous xenograft of colorectal cancer cell HCT-116 in nude mice (Experimental example 2); details: 190 μmol/kg i.v.
Method: (§2) This experimental example was used for the evaluation of the effectiveness of the compounds of the present invention in inhibiting the proliferation of a subcutaneous xenograft of human tumor cells via various routes of administration.
(§3) Gastric cancer cell NCI-N87 and colorectal cancer cell HCT-116 were cultured as a monolayer in vitro, and the culture conditions were RPMI-1640 culture medium supplemented with 10% heat inactivated Fetal Bovine Serum, and incubation in an incubator at 37° C. and 5% CO2. The cells were subcultured by treatment with trypsin-EDTA digestion.
(§4) The tumor cells were respectively inoculated into BALB/c nude mice (SPF grade, female, 16-18 g per mouse, about 6 to 8 weeks old, Beijing Vital River Laboratory Animal Technology Co., Ltd.).
(§5) Each nude mouse was inoculated with about 2.5×10^6 HCT-116 tumor cells or about 3×10^6 NCI-N87 tumor cells (suspended in 0.1 ml PBS) subcutaneously into the underarm of the right flank. After the inoculated tumor reached a size in the range of about 100-200 mm^3, nude mice bearing a tumor that is too small (smaller than 100 mm^3) or too big (bigger than 200 mm^3) were removed from the study, and the remaining ones were randomized into groups.
(§6) Sulfobutyl ether-β-cyclodextrin (SE-β-CD) was formulated with physiological saline to form a 10% solution, which was then filtered through a 0.22 μm sterile filter for later use.
(§7) An appropriate amount of the test compound was weighted, and added in DMSO. The resultant solution was vortexed to uniformity, and the 10% solution of SE-β-CD was added according to the desired concentration. The solution was vortexed to uniformity, and the final concentration of DMSO was adjusted to 5%. A gemcitabine injection (a positive control) was directly diluted to the desired concentration with physiological saline. A 10% solution of SE-β-CD containing 5% DMSO was prepared as a vehicle control.
(§8) Mice bearing a tumor having a volume of about 100-200 mm^3 were selected, and randomized into 5 groups (8 mice per group). The dosing volume was 10 mL/kg, and the administration (intravenous administration (i.v.) or oral administration (p.o.)) was performed twice a week for 3 weeks. The tumor volume and body weight were measured twice a week after the administration, and the mortality of animals was observed every day.
(§9) The diameter of a tumor was measured, and the tumor volume was calculated according to the following formula: V=0.5a×b^2, wherein a and b respectively represent the major and minor diameters of a tumor. The anti-tumor effect was evaluated by the tumor growth inhibition (TGI) (%). TGI (%)=[1−(VT-end−VT-start)/(VC-end−VC-start)]*100%
(§10) The body weight of an animal was measured twice a week.

[5] = tested on: human pancreatic cancer cell Capan-1; experiment: Subcutaneous xenograft of human pancreatic cancer cell Capan-1 in a nude mouse (Experimental example 5); format: in vivo; details: once every 3 days, 6 times
Method: According to methods similar to those in sections 1 to 2 in Experimental example 2, pancreatic cancer cell Capan-1 was cultured as a monolayer in vitro, and inoculated, and the animals were randomized into groups.
Samples were prepared as described in Experimental example 2.
Mice bearing a tumor having a volume of 100-200 mm^3 were selected, and randomized into 7 groups (7 mice per group).
as §1

[6] = tested on: gastric cancer cell NCI-N87; experiment: Subcutaneous xenograft of gastric cancer cell NCI-N87 in nude mice (Experimental example 2); format: in vivo; details: 190 μmol/kg i.v.
Method: as §2, §3, §4, §5, §6, §7, §8, §9, §10

[7] = mice, significant dose administered intravenously; cited from earlier work

Q: Which results are given for `Nc1ccn([C@@H]2O[C@H](CO)[C@@H](O)C2(F)F)c(=O)n1` [Gemcitabine injection, Gemcitabine, reference compound]?
A: TGI (%) ([1]; 0.12 mmol/kg i.v., twice a week for 3 weeks): 23.6%; TGI (%) ([1]; 0.23 mmol/kg i.v., once a week for 3 weeks): 23.6%; TGI (%) ([2]; 0.04 mmol/kg i.v.): −2.2%; TGI (%) ([2]; 0.12 mmol/kg i.v.): 28.9%; TGI (%) ([2]; 0.24 mmol/kg i.v.): 45.5%; TGI (%) [3]: 64.4%; Mortality [4]: 0; TGI (%) ([4]; twice a week for 3 weeks): 92%; Tumor regression ([4]; 14 days after last administration): 0; TGI (%) ([5]; 0.02 mmol/kg i.v.): 15.4%; TGI (%) ([5]; 0.19 mmol/kg i.v.): 78.9%; TGI (%) ([6]; twice a week for 3 weeks): 107%; Tumor regression, CR (complete tumor regression) ([6]; animals out of 8): 2/8 CR,; Tumor regression, PR (partial tumor regression) ([6]; animals out of 8): 6/8 PR; death or gastrointestinal toxicity after intravenous dosing [7]: no death or gastrointestinal toxicity
